Test results as given in patent US11090285B2, “Treatment of circadian rhythm disorders” (Vanda Pharmaceuticals Inc., priority 2013, dated 2021).
Entries after “also recorded” stand apart in the source; their conditions may differ.

Assays:
[1] = tmax after administration; design: species or system human; conditions: in vivo
Method: The ability to administer tasimelteon as little as about one hour prior to sleep time is advantageous because it allows for avoidance of pre-sleep time soporific effects, because it allows for administration of higher doses that might have greater soporific effects, and because it allows for pharmacologic intervention at a different phase of the sleep cycle than if it were administered earlier. Without wishing to be bound to any particular theory, it appears that the ability to administer tasimelteon so close to sleep time is a function of its tmax, which is approximately one-half hour. Melatonin, on the other hand, which has a tmax of approximately 2 hours or more, is administered several hours before sleep time, which can cause premature sleepiness; to avoid this soporific effect, melatonin is sometimes administered at sub-optimal doses.

[2] = Effect of smoking on pharmacokinetics of tasimelteon and metabolites; assay type: in vivo, human
Description: Smokers were defined as those smoking 10 or more cigarettes per day. Non-smokers were defined as those smoking no cigarettes per day.

CYP1A2 and CYP3A4 = assay: Isoenzymes involved in tasimelteon metabolism; assay type: in vitro ADME
Non-24 patients = assay: Entrainment by peak aMT6s level and beta blocker use (clinical studies); assay type: in vivo, human
Method: Results of clinical study also show a strong correlation between endogenous melatonin and efficacy of tasimelteon in entraining patients to a 24 hour circadian rhythm. The following table (Table 3A) compares the peak aMT6s levels in the 24 entrained and 23 non-entrained patients.
Data from these studies currently available also indicate that beta blocker therapy is […] related to efficacy of tasimelteon, i.e., patients receiving beta blocker therapy were less likely to become entrained than patients who were not.

For CCC(=O)NC[C@@H]1C[C@H]1c1cccc2c1CCO2 (relative stereo) [Tasimelteon, trans-N-[[2-(2,3-dihydrobenzofuran-4-yl)cycloprop-1yl]methyl]propanamide], the Tmax [1] was “approximately one-half; also recorded: about one-half”, the CL/F ([2]; Non-Smokers) was 1,482 ± 1,008 mL/min and the CL/F ([2]; Smokers) was 2,290 ± 1,232 mL/min. The “AUC (inf), Geometric Mean Ratio” value ([2]; Smokers vs Non-Smokers) was 60.14%, the “CL/F, Geometric Mean Ratio” value ([2]; Smokers vs Non-Smokers) was 166.27% and the “Cmax, Geometric Mean Ratio” value ([2]; Smokers vs Non-Smokers) was 63.98%. The “Vz/F, Geometric Mean Ratio” value ([2]; Smokers vs Non-Smokers) was 144.39%, the “t½, Geometric Mean Ratio” value ([2]; Smokers vs Non-Smokers) was 86.84% and the “isoenzymes also involved in metabolism” value (CYP1A2 and CYP3A4) was “CYP1A1, CYP2D6, CYP2C19, and CYP2C9”. The “major isoenzymes involved in the metabolism” value (CYP1A2 and CYP3A4) was “CYP1A2 and CYP3A4”, the Entrained patients (Non-24 patients; Peak aMT6s <1500 ng/hr) was 12 (41%) and the Non-entrained patients (Non-24 patients; Peak aMT6s <1500 ng/hr) was 17 (59%). The Entrained patients (Non-24 patients; Peak aMT6s <2000 ng/hr) was 13 (38%), the Non-entrained patients (Non-24 patients; Peak aMT6s <2000 ng/hr) was 21 (62%) and the Entrained patients (Non-24 patients; Peak aMT6s ≥1500 ng/hr) was 12 (67%). The Non-entrained patients (Non-24 patients; Peak aMT6s ≥1500 ng/hr) was 6 (33%), the Entrained patients (Non-24 patients; Peak aMT6s ≥2000 ng/hr) was 11 (85%) and the Non-entrained patients (Non-24 patients; Peak aMT6s ≥2000 ng/hr) was 2 (15%). For the same compound, the Entrained patients (Non-24 patients; Peak aMT6s: All (47 patients)) was 24 (51%), the Non-entrained patients (Non-24 patients; Peak aMT6s: All (47 patients)) was 23 (49%) and the Entrained patients (Non-24 patients; Taking Beta Blocker: No) was 24. For the same compound, the Non-entrained patients (Non-24 patients; Taking Beta Blocker: No) was 19, the Entrained patients (Non-24 patients; Taking Beta Blocker: Yes) was 0 and the Non-entrained patients (Non-24 patients; Taking Beta Blocker: Yes) was 4. The “patients who responded to therapy” value (Non-24 patients; baseline aMT6s excretion rate >2000 ng/hr) was “Eleven of thirteen”.
